Here are results for twelve molecules from US11241393B2 (priority 2020, dated 2022).

Structures are written as SMILES. Like-named read-outs stand apart in the source and are kept apart here.

Data set [1] is described as follows: in vitro. The note with it: dog.
In data set [2] the test system is influenza virus A/Aichi/2/68 (H3N2). The data set can be described thus: organism not typed. It is filed as cell-based. Conditions: for IC50: MDCK.
The subject of another data set is human cytomegalovirus. It counts as cell-based.
Data set [3] in a line: in vitro. The note with it: human.
Data set [4] in a line: in vitro.
A short description of data set [5]: in vitro. Conditions: cattle.
Data set [6] in a line: in vitro. Conditions: human. This is another data set of the same source.
A further data set relates to vaccinia virus. It is filed as cell-based. Conditions: in vitro, cell culture.
For data set [7] the following is noted: rat, in vivo.

In general, IC50 refers to the concentration needed to halve the response being measured. The low end stands for higher potency, the high end for lower potency. For `CC(N)C12CC3CC(CC(C3)C1)C2` (centres unmarked) [Rimantadine, reference compound], the CC50 in “in vitro [1]” was found to be 94 µM. Also, in data set [2], the SI is given as 3133.0 and 0.03 µM corresponded to half-maximal inhibition (IC50).
For the molecule `CCCCCCCCCC[Si](C)(C)CCOC1OC(CO)C(O)C(O)C1O` [Sil 2, 2-(Dimethyldecylsilyl)ethyl-b-D-glucopyranoside], in the data set with human cytomegalovirus, the “antiviral activity against human cytomegalovirus” value is recorded as “Close to borderline effect”. Also, the CC50 in “in vitro [3]” was below 20 µM; in the data set “in vitro [1]” it was below 20 µM; in the data set “in vitro [4]” it was below 20 µM; in the data set “in vitro [5]”, below 20 µM; in the data set on MDCK cells (dog), 18 µM. In addition, the SI in data set [2] is given as 2.43. For the same molecule, the “antiviral activity toward influenza virus A(H3N2)” value in [2] is recorded as “marked activity”. The molecule also yielded an IC50 in [2] of 7.38 µM. The “cytotoxicity (summary in words)” value in the data set with HEp-2 cells, in the data set with MDCK cells and in the data set with CT cells was “wider toxicity” each time.
Turning to `CCCCCCCCCCCC[Si](C)(C)CCOC1OC(CO)C(O)C(O)C1O` [Sil 3, 2-(Dimethyldodecylsilyl)ethyl-b-D-glucopyranoside], the CC50 was below 20 µM in the data set “in vitro [1]”, below 20 µM in the data set “in vitro [4]”, below 20 µM in the data set “in vitro [5]” and 19.2 µM with MDCK cells (dog). This molecule also registered an SI in [2] of 2.9. Besides, in data set [2], the “antiviral activity toward influenza virus A(H3N2)” value was “marked activity”. In data set [2], the IC50 was 6.6 µM.
For `CCCC[Si](C)(C)OC1OC(CO)C(O)C(O)C1O` [Sil 7, Butyldimethylsilyl-a-D-galactopyranoside], the “antiviral activity against human cytomegalovirus” value in the data set with human cytomegalovirus is on record as “Close to borderline effect”. The CC50 was 444 µM in “in vitro [1]” and below 20 µM in the data set “in vitro [6]”.
Molecule `CCCCCCCCCCCC[Si](C)(C)OC1OC(CO)C(O)C(O)C1O` [Sil 9, Dodecyldimethylsilyl-a-D-glucopyranoside] displayed a CC50 in “in vitro [1]” of 444 µM. Besides, the “antiviral activity versus vaccinia virus” value in the data set on vaccinia virus is “marked activity”.
Turning to `CCCCCCCCCCCCCCCCCC[Si](CCCCCCCCCCCCCCCCCC)(OC1OC(COC(C)=O)C(OC(C)=O)C(OC(C)=O)C1OC(C)=O)OC1OC(COC(C)=O)C(OC(C)=O)C(OC(C)=O)C1OC(C)=O` [Sil 15, 1-O-Dioctadecylsilyl-di(2,3,4,6-O-tetraacetyl-b-D-galactopyranoside)], in the data set on human cytomegalovirus (in vitro, cell culture), the “antiviral activity against human cytomegalovirus” value is “Close to borderline effect”.
`CCCCCCCCCCCC[Si](C)(C)O[C@@H]1O[C@H](COC(C)=O)[C@@H](OC(C)=O)[C@H](OC(C)=O)[C@H]1OC(C)=O` [Sil 19, 1-O-Dimethyl(dodecyl)silyl-(2,3,4,6-O-tetraacetyl-b-D-glucopyranoside)]: the “antiviral activity against human cytomegalovirus” value with human cytomegalovirus is “Close to borderline effect”. The CC50 in the data set on MDCK cells was 65.5 µM.
With `CCCCCCCCCCCCCCCCCC[Si](C)(C)O[C@@H]1O[C@H](COC(C)=O)[C@@H](OC(C)=O)[C@H](OC(C)=O)[C@H]1OC(C)=O` [Sil 20, 1-O-Dimethyl(octadecyl)silyl-(2,3,4,6-O-tetraacetyl-b-D-glucopyranoside)], the “antiviral activity toward the cytomegalovirus” value with human cytomegalovirus is listed as “marked activity”. Besides, the CC50 in the data set with MDCK cells is 2530 µM.
In “in vitro [1]”, `CCCCCCCCCCCC(=O)O[Si](OC(=O)CCCCCCCCCCC)(c1ccccc1)c1ccccc1` [Sil 25, Di(dodecanoyloxy)diphenylsilane] gave a CC50 of 55.9 µM. Moreover, in “in vitro [4]”, the CC50 is below 20 µM. Also, in data set [2], the SI was found to be 5.82; the “antiviral activity toward influenza virus A(H3N2)” value is reported as “marked activity”; the midpoint of inhibition, the IC50, lay at 9.6 µM.
In the case of `CCCCCCCCCCCCCCCC(=O)O[Si](OC(=O)CCCCCCCCCCCCCCC)(c1ccccc1)c1ccccc1` [Sil 27, Di(hexadecanoyloxy)diphenylsilane], in the data set with human cytomegalovirus, the SI is recorded as 30.9 and the “antiviral activity against human cytomegalovirus” value is “marked activity”. For the same molecule, the CC50 in “in vitro [1]” was 317 µM.
Turning to `CCCCCCCCCCC(=O)O[Si](C)(C)OC(=O)CCCCCCCCCC` [Sil 34, Di(undecanoyloxy)dimethylsilane], the “antiviral activity against human cytomegalovirus” value in the data set on human cytomegalovirus is recorded as “Close to borderline effect”. The CC50 in “in vitro [1]” was determined as 2530 µM.
As to `N.N.[Cl-].[Cl-].[OH-].[OH-].[Pt+4]` [Standard Cis-Oxoplatin, cis-oxoplatin], the “tissues with highest platinum concentration compared with the other treatment groups” value in data set [7] (iv) is “highest platinum concentration in the stomach and the liver”; in data set [7] (po), “highest accumulation of platinum in the spleen and lungs”.
